One series deals with ovariectomized wt mice. Put plainly: Propranolol treatment of ovariectomized wt mice. It is filed as in vivo, mouse. How it is done:
(§1) Wildtype (C57BL/6J) and mutant (C57BL/6J A^y/a, C57BL/6J ob/ob) mice were obtained from the Jackson laboratory and adrenal medullectomized mice from Harlan Tecklad laboratory. Dbh−/− mice were rescued as previously described (Thomas et al., 1998, Neurochem 70:2468-2476). Isoproterenol (Sigma) was injected intraperitoneally (ip) once daily for 6 weeks at 30 mg/kg (wt) or 3 mg/kg (ob/ob). Propranolol (Sigma) was added to the drinking water at a concentration of 0.5 g/l. For ICV infusion, a 28-gauge cannula (Brain infusion kit II, Alza) was implanted into the third ventricle as previously described infusing human leptin (Sigma) at 8 ng/hr or MT-II at 125 ng/hr (Phoenix Pharmaceuticals) for 28 days (see, e.g., Ducy et al., 2000, Cell 100: 197-207). The cannula was connected to an osmotic pump (Alza) placed in the dorsal subcutaneous space of the animal. For parabiosis longitudinal incisions were made in the skin and in the peritoneal cavity along one side on each mouse. Edges of the incisions were connected by suture to induce coelioanastomosis. Cross-circulation was quantified by injecting 1 ml/kg 0.25% Evans blue into the tail vein of one mouse of the parabiosed pair. After 30 min. blood was collected from both mice by retroorbital bleeding and the blood exchange rate was calculated according to standard techniques (see, e.g., Harris & Martin, 1984, Am J Physiol 247:R380-386). […] Two weeks after parabiosis a pump delivering leptin ICV in one animal of each pair was implanted. For GTG lesioning, 4-week-old C57BL/6J mice were given a single ip injection of either PBS or GTG (0.5 mg/g). For MSG lesioning, 2 day-old C57BL/6J pups were injected daily subcutaneously with either PBS or MSG (2 mg/g) for 10 days.
To test if it was the case ovariectomy in 6 week-old wt mice was performed and the mice were treated for 7 weeks with propranolol or vehicle. Estrogen depletion by ovariectomy decreased bone mass in vehicle-treated mice. […] This latter result underscores the physiologic and therapeutic importance of the sympathetic regulation of bone formation.

The test system of series [1] is murine primary osteoblasts. The series is described as follows: cAMP production in murine primary osteoblasts. Format: cell-based, mouse. The settings on record: added with isoproterenol or norepinephrine. Here is the method:
(§2) Primary osteoblast cultures were established as previously described (see, e.g., Ducy et al., 2000, Cell 100: 197-207) and maintained in αMEM/0.1 mg/ml ascorbic acid supplemented with 10% FBS. SaOS-2 were grown in MEM/10% FBS. For cAMP assay confluent cultures were incubated with serum free medium containing 100 μM IBMX (3-isobutyl-1-methylxanthine, Sigma) for 8 minutes before PBS, PTH(1-34) (Bachem), isoproterenol, norepinephrine, phenylephrine (Sigma) or propranolol were added for 5 min. Intracellular cAMP concentration was measured by immunoassay (R&D Systems). For gene expression analyses, primary osteoblasts were treated for 72 hours with appropriate drugs in 0.1% FBS. Hormone serum levels were quantified using immunoassays kits from Peninsula Laboratories (Insulin) or Alpco Diagnostics (leptin). Deoxypyridinoline cross-links and Creatinine were measured in morning urines using the Quidel kits. a1(I) leptin bioactivity was verified by cotransfection of 293 cells expressing ObRb with a STAT3-responsive-luc reporter construct, pSVβgal plasmid and a1(I) leptin expression vector or mock. Twenty-four hours later luciferase and β-galactosidase activities were measured. Data represents ratios of luciferase/β-galactosidase activities, and values are mean of 6 independent transfection experiments.
For a sympathetic regulation of bone formation to exist several requirements have to be fulfilled. The first one is that functional adrenergic receptors are present on osteoblasts. […] Immunohistochemical analysis of long bones from transgenic mice expressing LacZ under the control of the osteoblast-specific fragment of the a1(I) collagen promoter verified the presence of β2-adrenergic receptors on osteoblasts (FIG. 13B). No other adrenergic receptor subtype could be detected. […] Electron micrographs confirmed the presence of unmyelinated peripheral nerve axons coursing through the marrow adjacent to bone trabeculae and to osteoblasts (FIG. 13E). β-adrenergic receptors are G-coupled receptors that signal through the cAMP pathway (see, e.g., Benovic et al., 1988, Annu Rev Cell Biol 4:405-428). Thus, to assess the biologic relevance of the presence of β2-adrenergic receptors on osteoblasts, these cells were treated with isoproterenol, a β-adrenergic agonist, alone or in the presence of propranolol, a β-adrenergic receptor antagonist; with norepinephrine, the natural ligand of β-adrenergic receptors; with phenylephrine, an α-adrenergic agonist or with vehicle and measured cAMP production. As a positive control, parathyroid hormone (PTH) that binds to another G-coupled receptor present in osteoblasts was used (Gardella & Juppner, 2001, Trends Endocrinol Metab 12:210-217.). […] These effects were abolished by propranolol treatment. […]

Series [2] deals with human SaOS-2 osteoblastic cells. The series is described as follows: cAMP production in human SaOS-2 osteoblastic cells. Format: cell-based. The note with it: SaOS-2, added to β-adrenergic receptor agonists. Here is the method: as §2
For a sympathetic regulation of bone formation to exist several requirements have to be fulfilled. The first one is that functional adrenergic receptors are present on osteoblasts. […] No other adrenergic receptor subtype could be detected. […] Thus, to assess the biologic relevance of the presence of β2-adrenergic receptors on osteoblasts, these cells were treated with isoproterenol, a β-adrenergic agonist, alone or in the presence of propranolol, a β-adrenergic receptor antagonist; with norepinephrine, the natural ligand of β-adrenergic receptors; with phenylephrine, an α-adrenergic agonist or with vehicle and measured cAMP production. […]

The test system of a further series is primary osteoblasts. The series is described as follows: Gene expression and apoptosis in primary osteoblasts. The settings on record: primary osteoblasts, isoproterenol plus propranolol. Format: cell-based, mouse. How it is done: as §2
To elucidate the bases of the antiosteogenic effect of isoproterenol in vivo, osteoblast proliferation, gene expression and apoptosis were studied.

The subject of the next series is wt mice. The series is described as follows: Propranolol treatment of wt mice. Format: in vivo, mouse. Here is the method: as §1
Histological analyses were performed on undecalcified sections stained by von Kossa and counterstained by von Gieson (see, e.g., Ducy et al., 2000, Cell 100:197-207). Static and dynamic histomorphometric analyses were performed according to standard protocols (see, e.g., Parfitt et al., 1987, J Bone Miner Res 6:595-610) using the Osteomeasure Analysis System (Osteometrics, Atlanta). Six to 12 animals were analyzed for each group. Statistical significance was assessed by Student's t test.
as §2
The most important biomedical requirement for regulation of bone formation by the SNS is that β-adrenergic antagonists (β blockers) should increase bone mass by increasing bone formation. To address this point, wt mice were treated for 5 weeks with propranolol (0.4 mg/day). […] In some propranolol-treated mice the bone volume matched what is observed in ob/ob mice. […]

In the next series the test system is rats. The note with it: rats treated with propranolol; cited from earlier work.

`CC(C)NCC(O)COc1cccc2ccccc12` (stereo not shown) [propranolol]: in the series with ovariectomized wt mice (ovariectomized mice, 7 weeks), the “bone formation rate vs control ovariectomized mice” value was “striking increase” and the “osteoblast number vs control ovariectomized mice” value is “striking increase”. Further, in the series with ovariectomized wt mice (ovariectomy at 6 weeks of age, treated for 7 weeks), the bone mass entry is “normal”. Besides, the “effect on agonist-induced cAMP production” value in series [1] is on record as “abolished”. In addition, the “effect on agonist-induced cAMP production” value in series [2] is “inhibited”. Moreover, the “inhibitory effect of isoproterenol on gene expression” value with primary osteoblasts is recorded as “reversed”. Besides, the “Bone Volume” value with wt mice (Wild-type + propranolol) is reported as “High”. Besides, the “hyperinsulinism or other hormonal modifications” value in the series on wt mice (wt mice) is “did not cause”. In the series on wt mice (wt mice, 5 weeks, 0.4 mg/day), the “body weight and fat pad weight” value is “remained normal”; the bone formation rate entry was “increase”; the number of osteoblasts result was “increase”. Moreover, in the series with wt mice (wt mice, 5 weeks, 0.4 mg/day (drinking water 0.5 g/l)), the “bone mass in vertebrae and long bones” value was “significant increase”. In addition, the “femoral metaphyseal mineral apposition rates” value in the series with rats is recorded as “Increased”.

Values taken from US20060165683A1, “Methods and compositions for control of bone formation via modulation of sympathetic tone” (priority 2001, published 2006).
